The term inhibition denotes the change of the read-out against control, counted positive when it falls.

The values below come from patent US12577273B2, “Small molecule modulators of gut bacterial bile acid metabolism” (priority 2019, dated 2026).

Where “and” joins values, the source holds several entries; their conditions need not be identical. Equal values may be shown once. Entries after “also recorded” stand apart in the source; their conditions may differ. Read-outs that look alike come from different tables or passages of the source.

The subject of one series is B. adolescentis. Briefly: Inhibitor screen in bacteria, B. adolescentis culture. The following applies: FIG. 2c, 100 μM inhibitor, 100 μM bile acid pool, 21 h, replicates 1-3. Format: cell-based, Bifidobacterium adolescentis L2-32.
In series [1] the test system is three Gram negative and three Gram positive strains of human gut bacteria. Briefly: BSH inhibition in growing cultures of six gut bacterial strains (overall statements). It is filed as cell-based. The conditions noted are these: 100 μM inhibitor, 100 μM conjugated bile acid mixture.
Series [2] deals with T1, B. theta BSH (Bacteroides thetaiotaomicron, UniProt Q8A600). Description: Compound 7 kinetic studies (time to complete inhibition). It is filed as biochemical. As for the experimental part:
Formation of deconjugated bile acid was measured using a UPLC-MS-based assay and reported as % conversion.
Compound 7 Kinetic Studies. […] B. theta BSH (200 nM) was added to a pool of 100 μM bile acid pool and 100 μM 7. 500 μL aliquots were removed at indicated time points and flash frozen in liquid nitrogen. […] Procedure was repeated with 8.2 mM TUDCA.

Series [3] has as its target T1, B. theta BSH. Briefly: Mass spectrometry analysis for identifying labeled residue on BSH. It is filed as binding. The method, then: Mass Spectrometry Analysis for Identifying Labeled Residue on BSH. BSH protein was incubated with DMSO or a 10-fold molar excess of inhibitor 7 for 2 h at room temperature. Reactions were then analyzed by LC-MS using a Shimadzu LC and autosampler system (Shimadzu, Marlborough, MA) interfaced to an LTQ ion trap mass spectrometer (ThermoFisher Scientific, San Jose, CA).
To determine the site of modification, compound 7 modified protein was analyzed as described above, except that the LC system was interfaced to an Orbitrap Lumos Mass Spectrometer (ThermoFisher Scientific). […] Ion assignments were performed using mzStudio software.^50

Series [4] concerns BSH activity in conventional mouse feces. Description: Screen of inhibitors in conventional mouse feces. It is filed as biochemical. The following applies: 20 μM inhibitor, 30 min, then GCDCA-d4 100 μM, 18 hours. The method, then: Screen of Inhibitors in Conventional Mouse Feces. […] The tubes were then frozen in dry ice for 5 mins and upon thawing were diluted with an equal volume of methanol. […] The supernatant was removed into a clean eppendorf tube and centrifuged again. […] The concentration of product detected from these assays was reported directly.

A further series concerns C57BL/6 mice. It is filed as in vivo, mouse. The following applies: single gavage 10 mg/kg; for BSH activity in feces: 1 day and 1.5 days post-gavage. The method, then:
Mice were split into two groups of four mice each and were gavaged with either 200 μL of corn oil containing 5% DMSO (vehicle group) or with 200 μL of corn oil containing 7 at a concentration of 1.25 mg/mL (experimental group). For the fecal pellet collection, each mouse was transferred to a temporary cardboard cage for a few minutes until it defecated.
Quantification of Bile Acids in Tissues and Plasma.
Determination of Microbial Biomass by Plating. Frozen fecal pellets were used to determine colony forming units (CFU/g). Feces were suspended in PBS buffer in an anaerobic chamber. Serial dilutions were plated on CHG agar plates (see “Bacterial Culturing”) and incubated at 37° C.
Isolation of Fecal Bacterial Microbiota and 16S rRNA Gene Sequencing Analysis. Mouse fecal microbiota DNA was isolated by using ZymoBIOMICS 96 DNA Kit (ZymoBIOMICS™) according to the manufacturer's instructions. […]
Gel electrophoresis was used to check the success of PCR amplification. The concentration of the PCR product was measured by the Quan-IT dsDNA high sensitivity assay. ˜120 ng of DNA of each PCR product was pooled together to generate an aggregated library for downstream processing. PCR DNA amplicons between 300-500 bp were selected from the aggregated library on a targeted size selection platform (pippin prep 1.5% agarose cassette from Sage Sciences) according to the manufacturer's instructions. The size of DNA amplicons was characterized on an Agilent Technologies 2100 bioanalyzer trace. DNA concentration of the aggregated library was measured by the Quant-IT dsDNA high sensitivity assay. […] 600 ul of the denatured and diluted library with 20% phiX spike-in (120 ul, 7.5 pM of phiX) was loaded onto the MiSeq V2 reagent cartridge (Illumina) and was sequenced with paired-end 250 bp reads using the custom primers described above. […] The resulting FASTQ sequences were then quality-filtered and analyzed by following QIIME_mothur_DADA2.^56-59 Operational Taxonomic Units (OTUs) were picked with 97% sequence similarity. […]

Another series has as its system B. theta BSH KO strain. Briefly: Incubation with BSH-deleted B. theta strain. The following applies: 100 μM inhibitor.
Series [5] has as its target T1, B. theta BSH. Description: Inhibitor screen using rBSH, B. theta BSH (UPLC-MS % deconjugation).
The target in the next series is T2, B. longum BSH (Bifidobacterium longum, UniProt Q9KK62).
T2 sequence (Q9KK62 1-317): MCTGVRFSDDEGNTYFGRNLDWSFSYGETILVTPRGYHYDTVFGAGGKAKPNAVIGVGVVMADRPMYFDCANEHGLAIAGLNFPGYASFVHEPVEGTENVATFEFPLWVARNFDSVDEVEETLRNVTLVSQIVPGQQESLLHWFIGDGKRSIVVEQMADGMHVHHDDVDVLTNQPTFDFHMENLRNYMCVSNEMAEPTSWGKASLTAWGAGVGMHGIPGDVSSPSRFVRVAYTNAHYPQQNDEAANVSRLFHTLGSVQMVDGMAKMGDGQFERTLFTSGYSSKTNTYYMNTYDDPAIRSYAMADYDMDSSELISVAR
Description: Inhibitor screen using rBSH, B. longum BSH (UPLC-MS % deconjugation). It is filed as biochemical, Bifidobacterium longum SBT2928. Details: His6 (C); made in house; host or cells: Escherichia coli (as for the B. theta enzyme). The following applies: 100 μM inhibitor; 2 h, 5 h and 21 h timepoints. As for the experimental part: B. longum rBSH. Recombinant BSH from B. longum SBT2928 was expressed and purified as above, except 0.25 mM IPTG was used for protein expression and 1 mM TCEP for protein purification.
Inhibitor Screen Using rBSHs.

[6] abbreviates: Supplementary FIG. 3a, 5 hours, 100 μM inhibitor, 200 nM rBSH, bile acid pool, replicates 1-3.

For the compound `C[C@H](CCC(=O)CF)[C@H]1CC[C@H]2[C@@H]3[C@H](O)C[C@@H]4C[C@H](O)CC[C@]4(C)[C@H]3CC[C@]12C` [Compound 7], the “% deconjugation of TCA” value is 2.88% and 3.09% and 2.93% in the series on B. adolescentis; 0.00% at B. theta BSH [5] (setting [6]). The “% deconjugation of TDCA” value in the series on B. adolescentis is 10.43% and 6.05% and 7.35%. Moreover, in the series on B. adolescentis, the “% deconjugation of TUDCA” value was 1.54% and 1.26% and 1.21%. Moreover, the “% deconjugation of TβMCA” value was 0.34% and 0.37% and 0.73% in the series on B. adolescentis; 0.00% on B. theta BSH [5] (FIG. 2a, 2 hours, 100 μM inhibitor, 200 nM rBSH, bile acid pool, replicates 1-3); 0.00% on B. theta BSH [5] (FIG. 2a, 21 hours, 100 μM inhibitor, 200 nM rBSH, bile acid pool, replicates 1-3); 0.00% at B. theta BSH [5] (setting [6]). For the same compound, the “deconjugation / BSH inhibition in cultures of the six bacterial strains (in words)” value in series [1] is given as “almost no deconjugation”; in series [1] (listed as compound 7), “almost no detectable deconjugation”. At B. theta BSH [2] (100 μM 7 equimolar to substrate, no preincubation), the “time to complete inhibition of B. theta BSH” value was ≤ 15 s. On B. theta BSH [2] (large excess (~80-fold) of substrate (8.2 mM TUDCA)), the “time to entire inhibition of B. theta BSH activity” value is ≤ 15 min. Also, the “modified residue of B. theta BSH (top-down MS)” value on B. theta BSH [3] (10-fold excess of compound 7) is listed as “Cys2”. Moreover, the “shift in mass of BSH after treatment” value at B. theta BSH [3] (10-fold excess of compound 7, 2 h) was 388 Da. In addition, at B. theta BSH [3] (incubation of B. theta BSH with compound 7), the “shift in the intact mass of the protein” value was 388 mass units. Besides, the “BSH activity in resuspended conventional mouse feces (in words)” value in [4] was “completely inhibited BSH activity in feces”; in series [4] (listed as compound 7) it was “effectively inhibited BSH activity; also recorded: completely inhibited the BSH activity in feces; also recorded: almost completely inhibited BSH activity”. For the same compound, the “BSH activity in feces” value is recorded as “significant decrease in BSH activity in feces” with C57BL/6 mice (10 mg/kg) and “significantly lower” in the series on C57BL/6 mice (listed as compound 7, 10 mg/kg). For the same compound, the “fecal deoxycholic acid (DCA)” value in the series on C57BL/6 mice (1 day post-gavage) was “a decrease in the deconjugated secondary bile acid deoxycholic acid (DCA) was observed”. Besides, the “bactericidal effect on BSH-deleted B. theta (CFUs after 24 h)” value with B. theta BSH KO strain is “not found to be bactericidal”. In addition, in the series with B. theta BSH KO strain (100 μM taurine conjugated pool, 24 h), the “effect on bile acid pools with B. theta BSH KO strain” value is reported as “did not alter bile acid pools”. At B. theta BSH [5] (read-out: inhibition of B. theta BSH activity for 21 hours), the inhibition at 100 µM is > 98%. Moreover, the “inhibition of B. longum BSH (in words)” value on B. longum BSH is listed as “most potent inhibitor; also recorded: most active inhibitor”.
